Earlier results in paper PMC9788431, “Combination of Docking-Based and Pharmacophore-Based Virtual Screening Identifies Novel Agonists That Target the Urotensin Receptor” (Molecules, 2022).
Where “and” joins values, the source holds several entries; their conditions need not be identical. Equal entries are not always repeated. Non-standard residues stand in square brackets, D forms with d. Residues, ends and D or L forms follow the SMILES beside them.

Target: T1, UT receptor (Homo sapiens, UniProt Q9UKP6)
T1 construct: SNAP-tag; expressed in transfected cells; host or cells: 293A8 (HEK293A stably transfected with the UT receptor); inferred, the calcium-assay paragraph names no cells
T1 sequence (Q9UKP6 1-389): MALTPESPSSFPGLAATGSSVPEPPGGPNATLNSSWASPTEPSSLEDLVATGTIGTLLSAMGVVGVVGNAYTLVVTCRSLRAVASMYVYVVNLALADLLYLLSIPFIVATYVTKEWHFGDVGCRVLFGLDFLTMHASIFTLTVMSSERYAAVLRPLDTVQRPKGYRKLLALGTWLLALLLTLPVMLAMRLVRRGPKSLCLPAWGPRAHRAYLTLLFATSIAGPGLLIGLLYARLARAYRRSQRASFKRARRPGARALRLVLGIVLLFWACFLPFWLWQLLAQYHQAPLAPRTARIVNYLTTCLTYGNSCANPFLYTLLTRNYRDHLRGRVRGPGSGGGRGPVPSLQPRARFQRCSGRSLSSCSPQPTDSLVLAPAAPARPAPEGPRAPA
Settings: agonist; Table S1 benchmarking ligands; ref ChEMBL database and others; cited from earlier work

| SMILES | EC50 |
| --- | --- |
| NCCCC[C@H](NC(=O)[C@H](Cc1c[nH]c2ccccc12)NC(=O)[C@H](Cc1ccccc1)NC(=O)[C@@H](N)CS)C(=O)N[C@@H](Cc1ccc(O)cc1)C(=O)N[C@@H](CS)C(N)=O [CHEMBL298803] (H-CFWKYC-NH2) | 2.3 nM |
| CN(C)CCC(NC(=O)/C=C/c1ccc(C(F)(F)F)cc1)c1ccc2ccccc2c1 (stereo not shown) [CHEMBL229713] | 135 nM |
| CN(C)CCC(NC(=O)c1ccc(-c2ccc3ccccc3c2)cc1)c1ccc2ccccc2c1 (stereo not shown) [CHEMBL578853] | 525 nM |
| CC(C)[C@H](NC(=O)[C@H](CS)NC(=O)[C@H](Cc1ccc(O)cc1)NC(=O)[C@H](CCCCN)NC(=O)[C@H](Cc1c[nH]c2ccccc12)NC(=O)[C@H](Cc1ccccc1)NC(=O)[C@H](CS)NC(=O)[C@H](CC(=O)O)NC(=O)[C@H](C)NC(=O)[C@@H](NC(=O)[C@@H](N)CCC(=O)O)[C@@H](C)O)C(=O)O [CHEMBL2372897] (H-ETADCFWKYCV-OH) | 1.9 nM |
| CN(C)CCC(NC(=O)c1cccc(-c2ccc3ccccc3c2)c1)c1ccc(Cl)cc1 (stereo not shown) [CHEMBL573575] | 363 nM |
| CN(C)CCC(NC(=O)C#Cc1ccccc1)c1ccc(Cl)cc1 (stereo not shown) [CHEMBL228471] | 398 nM |
| CN(C)CCC(NC(=O)Nc1ccc(C(F)(F)F)cc1)c1ccc(Cl)cc1 (stereo not shown) [CHEMBL425592] | 117 nM |
| NCCCC[C@@H]1NC(=O)[C@H](Cc2c[nH]c3ccccc23)NC(=O)[C@H](CO)NC(=O)CNC(=O)[C@@H]2CCCN2C(=O)[C@H](Cc2ccccc2)NC1=O [CHEMBL593663] (cyclo(FPGSWK)) | 10.1 nM |
| NCCCC[C@@H]1NC(=O)[C@H](Cc2c[nH]c3ccccc23)NC(=O)[C@H](Cc2ccc(O)cc2)NC(=O)CNC(=O)[C@@H]2CCCN2C(=O)[C@H](Cc2ccc(O)cc2)NC1=O [CHEMBL607810] (cyclo(GYWKYP)) | 12.6 nM |
| COc1ccc(-c2ccc(C(=O)NC(CCN(C)C)c3ccc(C)cc3)cc2)cc1 (stereo not shown) [CHEMBL575629] | 347 nM |
| COc1ccc(/C=C/C(=O)NC(CCN(C)C)c2ccc3ccccc3c2)cc1 (stereo not shown) [CHEMBL229714] | 380 nM |
| CC(C)[C@H](NC(=O)[C@H](CS)NC(=O)[C@H](Cc1ccc(O)cc1)NC(=O)[C@H](CCCCN)NC(=O)[C@H](Cc1c[nH]c2ccccc12)NC(=O)[C@H](Cc1ccccc1)NC(=O)[C@H](CS)NC(=O)[C@@H](N)CC(=O)O)C(=O)O [CHEMBL414256] (H-DCFWKYCV-OH) | 3 nM |
| CN(C)CCC(NC(=O)/C=C/c1ccccc1)c1ccc2ccccc2c1 (stereo not shown) [CHEMBL387694] | 589 nM |
| CC(C)[C@H](NC(=O)[C@H](CS)NC(=O)[C@H](Cc1ccc(O)cc1)NC(=O)[C@H](CCCCN)NC(=O)[C@H](Cc1c[nH]c2ccccc12)NC(=O)[C@H](Cc1ccccc1)NC(=O)[C@H](CS)NC(=O)[C@H](CC(=O)O)NC(=O)[C@H]1CCCN1C(=O)[C@@H](NC(=O)[C@H](C)N)[C@@H](C)O)C(=O)O [CHEMBL2372899] (H-AT[dP]DCFWKYCV-OH) | 1.8 nM |
| CN(C)CCC(NC(=O)Nc1ccc(C(C)(C)C)cc1)c1ccc(Cl)cc1 (stereo not shown) [CHEMBL205681] | 275 nM |
| CC(C)[C@H](NC(=O)[C@H](CS)NC(=O)[C@H](C)NC(=O)[C@H](CCCCN)NC(=O)[C@H](Cc1c[nH]c2ccccc12)NC(=O)[C@H](Cc1ccccc1)NC(=O)[C@H](CS)NC(=O)[C@H](CC(=O)O)NC(=O)[C@H]1CCCN1C(=O)[C@@H](NC(=O)[C@@H](N)CCC(=O)O)[C@@H](C)O)C(=O)O [CHEMBL2372903] (H-ET[dP]DCFWKACV-OH) | 193 nM |
| CC(C)[C@H](NC(=O)[C@H](CS)NC(=O)[C@H](Cc1ccc(O)cc1)NC(=O)[C@H](CCCCN)NC(=O)[C@H](Cc1c[nH]c2ccccc12)NC(=O)[C@H](Cc1ccccc1)NC(=O)[C@H](CS)NC(=O)[C@H](CC(=O)O)NC(=O)[C@H]1CCCN1)C(=O)O [CHEMBL216349] (H-[dP]DCFWKYCV-OH) | 3.6 nM |
| Cc1ccc(C(CCN(C)C)NC(=O)c2cccc(-c3ccccc3)c2)cc1 (stereo not shown) [CHEMBL572392] | 813 nM |
| CN(C)CCC(NC(=O)c1ccc(C(F)(F)F)cc1)c1ccc(Cl)cc1 (stereo not shown) [CHEMBL204988] | 77.6 nM |
| CN(C)CCC(NC(=O)CCc1ccc(C(F)(F)F)cc1)c1ccc2ccccc2c1 (stereo not shown) [CHEMBL229710] | 372 nM |
| CC(C)[C@H](NC(=O)[C@H](CS)NC(=O)[C@H](Cc1ccc(O)cc1)NC(=O)[C@H](CCCCN)NC(=O)[C@H](Cc1c[nH]c2ccccc12)NC(=O)[C@H](Cc1ccccc1)NC(=O)[C@H](C)NC(=O)[C@H](CC(=O)O)NC(=O)[C@H]1CCCN1C(=O)[C@@H](NC(=O)[C@@H](N)CCC(=O)O)[C@@H](C)O)C(=O)O [CHEMBL2372895] (H-ET[dP]DAFWKYCV-OH) | 233 nM |
| COc1ccc(-c2ccc(C(=O)NC(CCN(C)C)c3ccc4ccccc4c3)cc2)cc1 (stereo not shown) [CHEMBL578654] | 105 nM |
| O=C(NC(CCN1CCCCC1)c1ccc(Cl)cc1)c1ccc(-c2ccccc2)cc1 (stereo not shown) [CHEMBL572467] | 661 nM |
| Cc1cc2c(cc1C)CC(CCN(C)C)(c1ccc(Cl)cc1)OC2 (stereo not shown) [CHEMBL1173492] | 692 nM |
| CC(C)[C@H](NC(=O)[C@H](CS)NC(=O)[C@H](Cc1ccc(O)cc1)NC(=O)[C@H](CCCCN)NC(=O)[C@@H](Cc1c[nH]c2ccccc12)NC(=O)[C@H](Cc1ccccc1)NC(=O)[C@H](CS)NC(=O)[C@H](CC(=O)O)NC(=O)[C@H]1CCCN1C(=O)[C@@H](NC(=O)[C@@H](N)CCC(=O)O)[C@@H](C)O)C(=O)O [CHEMBL385962] | 3.8 nM |

| SMILES | EC50 |
| --- | --- |
| CN(C)CCC(NC(=O)Cc1ccc(C(F)(F)F)cc1)c1ccc2ccccc2c1 (stereo not shown) [CHEMBL390792] | 575 nM |
| CN(C)CC[C@H](NC(=O)c1ccc(-c2ccc(Cl)cc2)cc1)c1ccc2ccccc2c1 [CHEMBL573392] | 22.9 nM |
| CN(C)CCC1(c2ccc(Cl)cc2)Cc2ccccc2C(=O)O1 (stereo not shown) [CHEMBL535141] | 251 nM and 316 nM |
| NCCCC[C@@H]1NC(=O)[C@H](Cc2c[nH]c3ccccc23)NC(=O)[C@H](Cc2ccccc2)NC(=O)CNC(=O)[C@@H]2CCCN2C(=O)[C@H](Cc2ccccc2)NC1=O [CHEMBL607811] (cyclo(FPGFWK)) | 13.2 nM |
| Cc1ccc(C(CCN(C)C)NC(=O)c2ccc(-c3ccc(Cl)cc3)cc2)cc1 (stereo not shown) [CHEMBL572883] | 126 nM |
| CN(C)CCC(NC(=O)C#Cc1ccccc1)c1ccc2ccccc2c1 (stereo not shown) [CHEMBL229764] | 457 nM |
| CN(C)CC[C@H](NC(=O)c1ccc(-c2ccccc2)cc1)c1ccc(Cl)cc1 [CHEMBL207823] | 32.4 nM |
| NCCCC[C@@H]1NC(=O)[C@H](Cc2c[nH]c3ccccc23)NC(=O)[C@H](Cc2ccccc2)NC(=O)CNC(=O)[C@@H]2CCCN2C(=O)[C@H](Cc2ccc(O)cc2)NC1=O [CHEMBL607809] (cyclo(FWKYPG)) | 6.94 nM |
| CC(C)[C@H](NC(=O)[C@H](CS)NC(=O)[C@H](Cc1ccc(O)cc1)NC(=O)[C@H](CCCCN)NC(=O)[C@H](Cc1c[nH]c2ccccc12)NC(=O)[C@H](CS)NC(=O)[C@H](CC(=O)O)NC(=O)[C@H]1CCCN1C(=O)[C@@H](NC(=O)[C@@H](N)CCC(=O)O)[C@@H](C)O)C(=O)O [CHEMBL412753] (H-ET[dP]DCWKYCV-OH) | 53 nM |
| CN(C)CCCC(NC(=O)c1ccc(-c2ccccc2)cc1)c1ccc(Cl)cc1 (stereo not shown) [CHEMBL576746] | 316 nM |
| Cc1cc2c(cc1C)C(=O)OC(CCN(C)C)(c1ccc3ccccc3c1)C2 (stereo not shown) [CHEMBL1173399] | 148 nM |
| CC(C)[C@H](NC(=O)[C@H](CS)NC(=O)[C@H](Cc1ccc(O)cc1)NC(=O)[C@H](CCCCN)NC(=O)[C@H](Cc1c[nH]c2ccccc12)NC(=O)[C@H](Cc1ccccc1)NC(=O)[C@@H](N)CS)C(=O)O [CHEMBL53181] (H-CFWKYCV-OH) | 1.8 nM |
| NCCCC[C@@H]1NC(=O)[C@H](Cc2c[nH]c3ccccc23)NC(=O)[C@H](CO)NC(=O)CNC(=O)[C@@H]2CCCN2C(=O)[C@H](Cc2ccc(O)cc2)NC1=O [CHEMBL593612] (cyclo(GSWKYP)) | 8.51 nM |
| NCCCN1N=C(CCc2nc3ccccc3s2)c2ccccc2N(Cc2ccc3ccccc3c2)C1=O [CHEMBL4076150] | 6.17 nM and 10.7 nM |
| Cc1cc2c(cc1C)C(=O)OC(CCN(C)C)(c1ccc(Cl)c(Cl)c1)C2 (stereo not shown) [CHEMBL1171808] | 51.3 nM |
| CN(C)CCC(NC(=O)c1ccc(-c2ccc(Cl)cc2)cc1)c1ccc(Cl)cc1 (stereo not shown) [CHEMBL572882] | 75.9 nM |
| CC(C)[C@H](NC(=O)[C@H](CS)NC(=O)[C@H](Cc1ccc(O)cc1)NC(=O)[C@H](CCCCN)NC(=O)[C@H](Cc1c[nH]c2ccccc12)NC(=O)[C@H](C)NC(=O)[C@H](CS)NC(=O)[C@H](CC(=O)O)NC(=O)[C@H]1CCCN1C(=O)[C@@H](NC(=O)[C@@H](N)CCC(=O)O)[C@@H](C)O)C(=O)O [CHEMBL2372901] (H-ET[dP]DCAWKYCV-OH) | 5.7 nM |
| CN(C)CCC(NC(=O)/C=C/c1ccc(C(F)(F)F)cc1)c1ccc(Cl)cc1 (stereo not shown) [CHEMBL228470] | 129 nM |
| CN(C)CCC(NC(=O)c1cccc(-c2ccc(Cl)cc2)c1)c1ccc(Cl)cc1 (stereo not shown) [CHEMBL582835] | 437 nM |
| Cc1ccc(C(CCN(C)C)NC(=O)c2cccc(-c3ccc(Cl)cc3)c2)cc1 (stereo not shown) [CHEMBL574731] | 646 nM |
| C=CCN(CC=C)c1ccc2c(c1)CC(CCN(C)C)(c1ccc(Cl)cc1)OC2=O (stereo not shown) [CHEMBL1173081] | 724 nM |
| Cc1ccc(C(CCN(C)C)NC(=O)c2ccc(-c3ccccc3)cc2)cc1 (stereo not shown) [CHEMBL572398] | 200 nM |
| CN(C)CCC(NC(=O)c1cccc(-c2ccccc2)c1)c1ccc2ccccc2c1 (stereo not shown) [CHEMBL575819] | 537 nM |
| NCCCC[C@@H]1NC(=O)[C@H](Cc2c[nH]c3ccccc23)NC(=O)[C@H](Cc2ccccc2)NC(=O)CNC(=O)[C@@H]2CCCN2C(=O)[C@H](Cc2c[nH]c3ccccc23)NC1=O [CHEMBL608098] (cyclo(FWKWPG)) | 20.6 nM |
